The target in the experiment is Transthyretin (Homo sapiens) (UniProt P02766). The experiment in a line: Binding selectivity to transthyretin in human blood plasma after 24 hincubation with 10.8 uM inhibitor. The experiment is classed as cell-free.

Consider 2 compounds from ChEMBL document CHEMBL1144319, “Design, synthesis, and evaluation of oxazole transthyretin amyloidogenesis inhibitors” (Bioorg Med Chem Lett, 2005).

With `CCc1oc(-c2cc(Cl)cc(Cl)c2)nc1C(=O)O`, the Molar equivalence bound amounted to 0.49.
Under `O=C(O)c1nc(-c2cc(Cl)cc(Cl)c2)oc1C(F)(F)F` stands 0.68.
